Measured values: patent US20030185792A1, “Morphogen analogs of bone morphogenic proteins” (Curis, Inc., priority 1996, published 2003)
“Also recorded” adds a separate entry of the source.

Assays:
ROS cells = assay: ROS cell based alkaline phosphatase bioassay; parameters: species or system rat; conditions: for % increase in OP-1 response relative to the absence of peptide: OP-1 1.33 nM
Protocol: In a first series of experiments, increasing concentrations of peptides F2-2 (FIG. 9A), F2-3 (FIG. 9B), Hn-2 (FIG. 9C) and Hc-2 (FIG. 9D) were added to ROS cells either alone (open bars) or in combination with 40 ng/ml soluble OP-1 (filled bars) and their effect on alkaline phosphatase activity measured. Soluble OP-1 is the form of OP-1 in which the pro-domain is still attached to the mature portion of OP-1 (see WO 94/03600). A basal alkaline phosphatase activity is shown by the line and represents the alkaline phosphatase activity of cells incubated in the absence of both soluble OP-1 and peptide.
(§1) Assay of peptides: The receptor-binding activities of OP-1 synthetic peptides were determined by a radio-ligand receptor assay using ^125I-labeled OP-1 as ligand, and an OP-1 receptor-enriched plasma membrane fraction of ROS cells. The assay is based on competition between radiolabeled OP-1 and unlabeled OP-1 or peptide for binding to membrane-bound receptor. A well characterized ROS cell based in vitro bio-assay was used to examine the effects of OP-1 peptides on basal as well as OP-1 induced cellular alkaline phosphatase activity.
i. ROS Cell Based Alkaline Phosphatase Assay: OP-1 synthetic peptides that bind OP-1 receptors are further analyzed by in vitro bioassay. This allows defining the role of OP-1 peptides at the receptor-binding site. Some of the OP-1 peptides that effectively interact with receptors could inhibit OP-1 induced target cell responsiveness, thereby acting as functional antagonists. Alternatively, they may mimic OP-1 functions inducing alkaline phosphatase activity in ROS cells. Creative BioMolecules has developed and fully validated ROS cell in vitro assay for OP-1. An assay procedure as described earlier is essentially followed to determine the biological activities of OP-1 peptides. In a typical experiment, rat Osteosarcoma (17/2.8) cells are plated in 96 well plates (3.0×10^4 cells/well) and incubated overnight at 37° C. in 5-6% CO2 incubator. Next day, the plates are examined to make sure that cells are healthy & confluent. Cells are treated with increasing concentrations of OP-1 standard (1-10,000 ng/ml) or OP-1 synthetic peptides (0.02-200 μM) alone or with OP-1 standard prepared in medium containing 1% FBS and incubated for 2 days at 37° C. in 5-6% CO2 incubator. The cellular content of alkaline phosphatase activity is determined by the method of Reddi and Huggins. Enzyme estimations are routinely carried out in 96 well plates. Following removal of culture medium, cells are washed with pre-warmed PBS (150 μl) and further incubated in 100 ul of pre-warmed 1% Triton X-100 for 30 minutes at 37 C. Plates are centrifuged for 10 minutes at full speed, and recovered samples (each 15 μl) are assayed for enzyme activity by adding 90 ul p-nitrophenyl phosphate (Sigma) as a substrate in 0.05 M glycine-NaOH buffer, pH 9.3 and incubating for 20 minutes at 37° C. The reaction is stopped by adding 75 μl of 0.2 N NaOH/well and absorbance at 405/490 nm is measured on a Dynatech MR 700 plate reader. Results are expressed as concentration of peptide inhibitor (with antagonist activity) required to give 50% inhibition of maximum response to OP-1 standard. On the other hand, the activities of peptides that stimulate cell responsiveness (with agonist activity) are expressed relative to OP-1 standard. FIG. 23 illustrates the dose-related effects of OP-1 preparations on stimulation of alkaline phosphatase activity as determined in ROS cell based in vitro assay.

[1] = system: OP-1 receptor-enriched plasma membrane fraction of ROS cells; assay: Radioligand receptor assay: displacement of 125I-labeled OP-1 from ROS cell plasma membranes; format: binding, rat
Protocol: In a second series of experiments, the ability of unlabeled soluble OP-1 and unlabeled peptides F1-2, F2-2, F2-3, H-n2 and H-c2 to displace ^125I labeled soluble OP-1 from ROS cell membranes was measured. The activities of peptides F2-2 and F2-3 relative to soluble OP-1 are shown in FIG. 10A, and the activities of peptides Fi-2, H-n2 and H-c2 relative to soluble OP-1 are shown in FIG. 10B. OP-1 receptor-enriched plasma membranes of ROS cells were incubated for 20 hrs at 4° C. with ^125I-labeled soluble OP-1 and unlabeled peptide. Receptor bound material was separated from unbound material by centrifugation at 39,500×g. The resulting pellet was harvested and washed with 50 mM HEPES buffer, pH 7.4 containing 5 mM MgCl2 and 1 mM CaCl2 Radioactivity remaining in the pellet was determined by means of a gamma counter.
as §1
i. Radio-receptor Assay: The receptor-binding activities of various OP-1 synthetic peptides can be determined by an equilibrium displacement binding isotherm assay using ^125I-labeled OP-1 as ligand and OP-1 receptor-enriched plasma membrane fraction of ROS cells. Highly purified OP-1 can be radioiodinated to a specific activity of 70-78 μCi/ug by a modified procedure of lactoperoxidase method. The percent bindability of radioiodinated OP-1 to excess receptor is 30-37%. Plasma membranes enriched with OP-1 receptors from ROS cells can be isolated as is known in the art. […] In a typical assay, fixed amounts of ^125I-labeled sol. OP-1 (˜80,000 cpm) are incubated with fixed amount of receptor-enriched plasma membrane fraction in the presence (5 μg, for non-specific binding) or absence of excess unlabeled OP-1 (for total binding). Displacement curves are generated with increasing concentrations of OP-1 peptide (0.032-50 μM) or OP-1 standard preparation (5-2000 ng). The assay incubations are carried out in a reaction volume of 300 μl with shaking for 22 hrs. at 4° C. Separation of bound and free ^125I-labeled OP-1 is by centrifugation (39,500×g, 30 minutes). The supernatants are aspirated and pellets are washed before counting in a gamma counter (Packard Instr., Downers Grove, Ill.). The concentration of OP-1 peptide required to give 50% inhibition of total specific binding of ^125I-labeled OP-1 (ED50) is calculated from competitive data.

## F2-3: SEQ ID No. 19; 16 residues, finger 2 tip 11-residue loop with 5-residue C-terminal extension (CYFDDSSNVICKKYRS; listed as Homo sapiens)
ROS cells; Example 2, alone or with 40 ng/ml soluble OP-1
  behaviour in the alkaline phosphatase assay (agonist/antagonist): weak OP-1 agonists
ROS cells; Example 3, peptide alone, no OP-1
  effect on basal cell responsiveness (alkaline phosphatase activity): no significant effect
ROS cells; Example 3, peptide together with OP-1
  effect on OP-1 induced cell responsiveness (agonist/antagonist behaviour): agonistic manner; also recorded: potentiating the cell responsiveness to OP-1
ROS cells; Example 3, with OP-1
  peptide concentrations at which OP-1 induced responsiveness is potentiated: 0.01 to 1 µM
ROS cells; Example 3 summary, antagonistic (H-C2) and modulating (F2-3) activity
  overall judgement of activity (lead peptides): highly active
ROS cells; peptide 0.01 (unit printed ELM), FIG. 19
  % increase in OP-1 response relative to the absence of peptide: 53%
ROS cells; peptide 0.1 (unit printed ELM), FIG. 19
  % increase in OP-1 response relative to the absence of peptide: 54%
ROS cells; peptide 1 ELM (so in the source), FIG. 19
  % increase in OP-1 response relative to the absence of peptide: 48%
ROS cells; peptide about 0.01 μM with 40 ng/ml soluble OP-1, FIG. 9B
  increase of alkaline phosphatase activity relative to soluble OP-1 alone: about 20%
ROS cells; peptide alone, about 0.01 μM, Example 2, FIG. 9B
  effect on basal alkaline phosphatase level: increase the basal alkaline phosphatase level
[1]; Example 2, FIGS. 10A and 10B
  ability to displace 125I-labeled soluble OP-1 from ROS cell membranes: able to completely displace
[1]; Example 3
  effect on binding of 125I-labeled OP-1 to the receptor: effectively competed

B1: OP-1: osteogenic protein-1, a tissue morphogenic protein of the TGF-β superfamily; mature human OP-1 is SEQ ID No. 4 (protein, listed as Homo sapiens)
chain: CKKHELYVSFRDLGWQDWIIAPEGYAAYYCEGECAFPLNSYMNATNHAIVQTLVHFINPETVPKPCCAPTQLNAISVLYFDDSSNVILKKYRNMVVRACGCH
ROS cells; FIG. 19, sub-maximal OP-1 (1.33 nM)
  level of OP-1 response in the absence of peptide: approximately 60 % of maximum
[1]; single class of binding sites in ROS cell plasma membrane preparations
  affinity (Ka) of OP-1 binding sites: 4.38e+09 M⁻¹
